Experimental data as given in the supplement of paper PMC10307832.

Legend:
Test in all cases: relative viability (nuclei count vs DMSO), 5 days (fraction); higher = more cells survive
[1] = compound: CN1CCC(CC1)OC2=CC(=C(C=C2)NC3=NC=C4C(=N3)N(C(=O)N4C)C5CCCC5)OC [AZ3146] + Cc1cc(Nc2cc(N3CCN(C)CC3)nc(Sc3ccc(NC(=O)C4CC4)cc3)n2)n[nH]1 [Tozasertib] (partner 0.1 µM)
How it was run: (§1)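 Lung cancer cell lines in 1536-well plates were dosed by pin tool the day after seeding, either with one drug alone or with a fixed anchor-drug dose plus five library-drug doses (not always all listed) in √10 steps. After 5 days, cells were fixed and their nuclei stained in one step (final 0.05% Triton X-100, 1% formaldehyde, 1 ug/ml Hoechst), then counted on 4× images. Relative viability is the nuclei count in treated wells divided by that in vehicle wells. Values are medians of duplicate plates.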

[2] = compound: CN1CCC(CC1)OC2=CC(=C(C=C2)NC3=NC=C4C(=N3)N(C(=O)N4C)C5CCCC5)OC [AZ3146] + O=C(c1cc(Cc2n[nH]c(=O)c3ccccc23)ccc1F)N1CCN(C(=O)C2CC2)CC1 [Olaparib] (partner 8 µM)
How it was run: as §1

[3] = compound: CN1CCC(CC1)OC2=CC(=C(C=C2)NC3=NC=C4C(=N3)N(C(=O)N4C)C5CCCC5)OC [AZ3146] + CCNC(=O)c1noc(-c2cc(C(C)C)c(O)cc2O)c1-c1ccc(CN2CCOCC2)cc1 [Luminespib] (partner 0.01 µM)
How it was run: as §1

[4] = compound: CCOC(=O)CCNc1cc(N2CCc3ccccc3CC2)nc(-c2ccccn2)n1 [GSK-J4] + O=C(CCCCCCC(=O)Nc1ccccc1)NO [Vorinostat] (partner 1 µM)
How it was run: as §1

Cell Line | relative viability ([1]; first compound 0.08 µM) | relative viability ([1]; first compound 0.253 µM) | relative viability ([1]; first compound 0.8 µM) | relative viability ([1]; first compound 2.53 µM) | relative viability ([1]; first compound 8 µM) | relative viability ([2]; first compound 0.08 µM) | relative viability ([2]; first compound 0.253 µM) | relative viability ([2]; first compound 0.8 µM) | relative viability ([2]; first compound 2.53 µM) | relative viability ([2]; first compound 8 µM) | relative viability ([3]; first compound 0.08 µM) | relative viability ([3]; first compound 0.253 µM) | relative viability ([3]; first compound 0.8 µM) | relative viability ([3]; first compound 2.53 µM) | relative viability ([3]; first compound 8 µM) | relative viability ([4]; first compound 0.5 µM) | relative viability ([4]; first compound 1.581 µM) | relative viability ([4]; first compound 5 µM) | relative viability ([4]; first compound 15.81 µM) | relative viability ([4]; first compound 50 µM)
NCI-H2085 | 0.747 | 0.786 | 0.727 | 0.587 | 0.508 | 0.792 | 0.749 | 0.749 | 0.764 | 0.711 | 0.417 | 0.416 | 0.394 | 0.427 | 0.608 | 0.767 | 0.731 | 0.697 | 0.634 | 0.728
SW 900 | 0.466 | 0.625 | 0.399 | 0.326 | 0.333 | 0.706 | – | 0.785 | 0.846 | 0.754 | 0.176 | 0.167 | 0.18 | 0.184 | 0.167 | 0.607 | 0.414 | 0.79 | 0.408 | 0.483
NCI-H322M | 0.455 | 0.466 | 0.439 | 0.495 | 0.509 | 0.839 | 0.839 | 0.644 | 0.813 | 0.729 | 0.88 | 0.847 | 0.715 | 0.924 | 0.787 | 0.877 | 0.964 | 1.11 | 0.84 | 0.928
NCI-H1915 | 0.409 | 0.483 | 0.367 | 0.381 | 0.351 | 0.24 | 0.283 | 0.271 | 0.277 | 0.312 | 0.717 | 0.888 | 0.913 | 0.875 | 0.919 | 0.452 | 0.481 | – | 0.417 | 0.483
HOP-62 | 0.325 | 0.447 | 0.345 | 0.348 | 0.291 | 0.48 | 0.345 | 0.44 | 0.361 | 0.359 | 0.943 | 0.865 | 0.87 | 0.959 | 0.992 | 0.48 | 0.355 | 0.585 | 0.507 | 0.35
LXF-289 | 0.194 | 0.189 | 0.158 | 0.216 | 0.189 | 1.13 | 0.989 | 1.07 | 1.18 | 1.06 | 0.643 | 0.691 | 0.705 | 0.772 | 0.787 | 0.821 | 0.631 | 0.874 | 0.692 | 0.653
LCLC-103H | 0.418 | 0.523 | 0.498 | 0.45 | 0.409 | 0.755 | 0.765 | 0.778 | 0.749 | 0.745 | 1.01 | 0.917 | 0.966 | 1.01 | 1.02 | 0.77 | 0.671 | 0.624 | 0.675 | 0.546
NCI-H441 | 0.676 | 0.701 | 0.595 | 0.588 | 0.266 | 0.519 | 0.645 | 0.603 | 0.678 | 0.523 | 0.274 | 0.465 | 0.353 | 0.38 | 0.473 | 0.716 | 0.602 | 0.779 | 0.714 | 0.715
